Experimental data from US20150087673A1, “METHODS FOR USING AND BIOMARKERS FOR AMPK-ACTIVATING COMPOUNDS” (RIGEL PHARMACEUTICALS, INC., priority 2013, published 2015).

System: AMPK
Experiment: AMPK activation assay (enzyme-linked immunosorbent assay)
Format: cell-based
Summary of the method: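 Activator screen performed per well-known kit methods.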

Row | Structure (SMILES) | EC50
1 | CS(=O)(=O)c1ccc(OC2CCN(C(=O)c3cnc(C(=O)NC4CCN(Cc5ccc(C#N)cc5)CC4)cn3)CC2)cc1 [Compound 218, N-(1-(4-cyanobenzyl)piperidin-4-yl)-5-(4-(4-(methylsulfonyl)phenoxy)piperidine-1-carbonyl)pyrazine-2-carboxamide] | < 500 nM
2 | N#Cc1ccc(CN2CCC(NC(=O)c3cnc(C(=O)N4CCC(C(=O)c5ccc(N6CCCC6)cc5)CC4)cn3)CC2)cc1 [Compound 219, N-(1-(4-cyanobenzyl)piperidin-4-yl)-5-(4-(4-(pyrrolidin-1-yl)benzoyl)piperidine-1-carbonyl)pyrazine-2-carboxamide] | < 500 nM
3 | CN1CCN(c2ccc(C(=O)C3CCN(C(=O)c4cnc(C(=O)NC5CCN(Cc6ccc(C#N)cc6)CC5)cn4)CC3)cc2)CC1 [Compound 220, N-(1-(4-cyanobenzyl)piperidin-4-yl)-5-(4-(4-(4-methylpiperazin-1-yl)benzoyl)piperidine-1-carbonyl)pyrazine-2-carboxamide] | < 500 nM
4 | CS(=O)(=O)c1ccc(C(=O)C2CCN(C(=O)c3ccc(C(=O)NC4CCN(Cc5ccc(C#N)cc5)CC4)cn3)CC2)cc1 [Compound 221, N-(1-(4-cyanobenzyl)piperidin-4-yl)-6-(4-(4-(methylsulfonyl)benzoyl)piperidine-1-carbonyl)nicotinamide] | 1000 to 5000 nM
5 | CS(=O)(=O)c1ccc(C(=O)C2CCN(C(=O)c3ccc(C(=O)NC4CCN(Cc5ccc(F)cc5)CC4)cn3)CC2)cc1 [Compound 222, N-(1-(4-fluorobenzyl)piperidin-4-yl)-6-(4-(4-(methylsulfonyl)benzoyl)piperidine-1-carbonyl)nicotinamide] | 1000 to 5000 nM
6 | COc1ccc(CN2CCC(NC(=O)c3ccc(C(=O)N4CCC(C(=O)c5ccc(S(C)(=O)=O)cc5)CC4)nc3)CC2)cc1 [Compound 223, N-(1-(4-methoxybenzyl)piperidin-4-yl)-6-(4-(4-(methylsulfonyl)benzoyl)piperidine-1-carbonyl)nicotinamide] | 1000 to 5000 nM
7 | CS(=O)(=O)c1ccc(C(=O)C2CCN(C(=O)c3ccc(C(=O)Nc4ccc(Oc5ccc(F)cc5)nc4)cn3)CC2)cc1 [Compound 224, N-(6-(4-fluorophenoxy)pyridin-3-yl)-6-(4-(4-(methylsulfonyl)benzoyl)piperidine-1-carbonyl)nicotinamide] | < 500 nM
8 | CS(=O)(=O)c1ccc(C(=O)C2CCN(C(=O)c3ccc(C(=O)NC4CCN(Cc5ccc(F)cc5)CC4)nc3)CC2)cc1 [Compound 225, N-(1-(4-fluorobenzyl)piperidin-4-yl)-5-(4-(4-(methylsulfonyl)benzoyl)piperidine-1-carbonyl)picolinamide] | < 500 nM
9 | CS(=O)(=O)c1ccc(OC2CCN(C(=O)c3ccc(C(=O)NC4CCN(Cc5ccc(F)cc5)CC4)nc3)CC2)cc1 [Compound 226, N-(1-(4-fluorobenzyl)piperidin-4-yl)-5-(4-(4-(methylsulfonyl)phenoxy)piperidine-1-carbonyl)picolinamide] | < 500 nM
10 | CS(=O)(=O)c1ccc(OC2CCN(C(=O)c3ccc(C(=O)NC4CCN(Cc5ccc(C#N)cc5)CC4)nc3)CC2)cc1 [Compound 227, N-(1-(4-cyanobenzyl)piperidin-4-yl)-5-(4-(4-(methylsulfonyl)phenoxy)piperidine-1-carbonyl)picolinamide] | < 500 nM
11 | CS(=O)(=O)c1ccc(C(=O)C2CCN(C(=O)c3ccc(C(=O)NC4CCN(Cc5ccc(C#N)cc5)CC4)nc3)CC2)cc1 [Compound 228, N-(1-(4-cyanobenzyl)piperidin-4-yl)-5-(4-(4-(methylsulfonyl)benzoyl)piperidine-1-carbonyl)picolinamide] | < 500 nM
12 | CS(=O)(=O)c1ccc(C(=O)C2CCN(C(=O)c3ccc(C(=O)NC4CCN(Cc5ccc(N6CCCC6)cc5)CC4)cn3)CC2)cc1 [Compound 229, 6-(4-(4-(methylsulfonyl)benzoyl)piperidine-1-carbonyl)-N-(1-(4-(pyrrolidin-1-yl)benzyl)piperidin-4-yl)nicotinamide] | 1000 to 5000 nM
